Earlier results as cited in patent US20150190331A1, “NAIL LACQUER COMPOSITION WITH HYPOSENSITIVITY” (Pakaly Enterprise Co., Ltd., priority 2014, published 2015).

system: guinea pigs; conditions: in guinea pigs; International Journal of Toxicology 24(Suppl 5): 53-100, 2005

| Compound | sensitizer strength |
| --- | --- |
| C=C(C)C(=O)OCCCC [Butyl Methacrylate] | moderate sensitizers |
| C=C(C)C(=O)OC1CCCCC1 [Cyclohexyl Methacrylate] | moderate sensitizers |
| C=C(C)C(=O)OCCO [HEMA, hydroxyethylmethacrylate] | strong sensitizers |
| C=C(C)C(=O)OCCCCCC [Hexyl Methacrylate] | moderate sensitizers |
| C=C(C)C(=O)OCCCO [Hydroxypropyl Methacrylate] | weak sensitizer |
| C=C(C)C(=O)OCC(O)COc1ccc(C(C)(C)c2ccc(OCC(O)COC(=O)C(=C)C)cc2)cc1 (centres unmarked) [Isopropylidenediphenyl Bisglycidyl Methacrylate] | strong sensitizers |
| C=C(C)C(=O)OCCCCCCCCCCCC [Lauryl Methacrylate] | strong sensitizers |
| C=C(C)C(=O)OCCOCCOCCOC(=O)C(=C)C [Triethylene Glycol Dimethacrylate] | not sensitizers |
| C=C(C)C(=O)OCC(CC)(COC(=O)C(=C)C)COC(=O)C(=C)C [Trimethylolpropane Trimethacrylate] | strong sensitizers |
| PEG-4 Dimethacrylate | not sensitizers |
| Urethane Methacrylate | moderate sensitizers |
